Laboratory results as given in patent US6787556B1, “Benzoic acid derivatives for the treatment of diabetes mellitus” (AstraZeneca AB, priority 1999, dated 2004).

Legend:
Format in all cases: cell-based
3T3L1 preadipocytes = assay: Adipocyte differentiation assay (glycerophosphate dehydrogenase activity); settings: concentration of 10 μM, 3T3L1 cells, day 7; positive control BRL 49653
Procedure: Adipocyte Differentiation Assay
3T3L1 preadipocytes were grown in DMEM containing 10% NBCS and 1 day post-confluence cells were cultured in differentiation medium (DMEM containing 5% FCS, 1 μg/ml insulin, 0.25 μM dexamethasone and 0.5 mM IBMX) in the presence or absence of compounds. BRL 49653 was used as the positive control and the medium replenished after 3 days. On day 7, cells were lysed and glycerophosphate dehydrogenase activity measured spectrophotometrically at 340 nm.

human PPARα = target: T1, human PPARα (Homo sapiens, UniProt Q07869); assay: Cell transactivation assay in transiently transfected Hepa1c1c7 cells, PPRE-Lac Z reporter; settings: concentration of 10 μM
T1 construct: expressed in transfected cells; host or cells: Hepa1c1c7 cells (transient transfection, Superfect)
T1 sequence (Q07869 1-468): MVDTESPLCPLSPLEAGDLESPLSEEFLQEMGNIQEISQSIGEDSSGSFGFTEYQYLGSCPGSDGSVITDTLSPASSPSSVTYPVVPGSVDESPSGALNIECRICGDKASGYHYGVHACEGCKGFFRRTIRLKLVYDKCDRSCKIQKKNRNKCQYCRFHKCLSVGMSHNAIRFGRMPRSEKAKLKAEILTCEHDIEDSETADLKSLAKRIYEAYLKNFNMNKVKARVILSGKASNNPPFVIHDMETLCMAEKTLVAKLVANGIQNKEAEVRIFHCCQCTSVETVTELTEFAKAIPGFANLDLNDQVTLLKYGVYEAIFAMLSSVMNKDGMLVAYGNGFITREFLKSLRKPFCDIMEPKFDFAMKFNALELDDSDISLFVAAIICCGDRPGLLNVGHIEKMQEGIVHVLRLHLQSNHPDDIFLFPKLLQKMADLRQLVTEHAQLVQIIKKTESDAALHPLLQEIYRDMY
Procedure: (§1) (B) Cell Transactivation Assays
(§2) Assays were performed by transient transfection of Hepa1c1c7 cells in which compounds of the invention were tested for their ability to activate human PPARα, δ and γ isoforms. Cells were co-transfected with either PPARa, d and g expression vectors (containing the entire ORF sequence) and a reporter construct carrying a PPRE linked Lac Z construct. Cells were transfected using Superfect and cultured in T75 flasks overnight, then plated into 96 well plates and left for 5 hours before the addition of test compound. After a further 24 hours PPAR activation was quantitated indirectly as β-Galactosidase activity by hydrolysis of chlorophenol red-β-D-galactopyranoside (CPRG), measured spectrophotometrically at 580 nm. Compounds of the invention were active in this assay.
(§3) According to their activity in transactivation assays and by comparison to the selective PPARγ agonist, BRL 49653; compounds of the invention were categorised as either having pharmacological properties consistent with: selective PPARγ agonists, partial agonists or non-selective PPAR α/γ agonists.

human PPARγ = target: T2, human PPARγ (Homo sapiens, UniProt P37231); assay: as above; settings: concentration of 10 μM
T2 construct: expressed in transfected cells; host or cells: Hepa1c1c7 cells (transient transfection, Superfect)
T2 sequence (P37231 1-505): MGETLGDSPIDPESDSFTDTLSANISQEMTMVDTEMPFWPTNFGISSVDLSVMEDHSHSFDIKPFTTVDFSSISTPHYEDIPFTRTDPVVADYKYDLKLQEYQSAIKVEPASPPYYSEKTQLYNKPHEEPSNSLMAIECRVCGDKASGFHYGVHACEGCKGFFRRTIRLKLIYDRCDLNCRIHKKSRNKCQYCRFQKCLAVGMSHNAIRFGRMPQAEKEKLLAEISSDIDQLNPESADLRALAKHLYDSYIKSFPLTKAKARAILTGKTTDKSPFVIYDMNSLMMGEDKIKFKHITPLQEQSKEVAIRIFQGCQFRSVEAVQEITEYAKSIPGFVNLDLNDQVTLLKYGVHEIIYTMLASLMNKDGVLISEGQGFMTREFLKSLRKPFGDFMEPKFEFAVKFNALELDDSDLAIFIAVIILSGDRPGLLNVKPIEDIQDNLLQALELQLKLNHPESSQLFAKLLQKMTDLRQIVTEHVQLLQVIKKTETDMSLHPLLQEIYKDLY
Procedure: as §1, §2, §3

## COc1cc(-c2nnn(Cc3ccccc3C(=O)O)n2)ccc1CN(C)C(=O)COc1ccc(Cl)cc1 [Compound 46]
3T3L1 preadipocytes
  activity as compared to the control (glycerophosphate dehydrogenase activity): 79%
Human PPARα
  α transactivation: 25%
Human PPARγ
  γ transactivation: 64%
